Read-outs that look alike come from different tables or passages of the source.
Tests used:
[1] = test system: Mouse 3T3-L1 pre-adipocytes; assay: Adipogenesis inhibition, lipid accumulation by Oil red O staining in cultured 3T3L1; type: cell-based
Procedure: Stock was diluted 1000 times in DMEM to get 10 μg/ml final concentration and serially diluted. Insulin (Hi Media) was bought as a solution at a concentration of 20 mg/ml. This was diluted to 1 μg/ml in DMEM. IBMX (Sigma)—Stock of 5 mM was prepared in DMEM, and diluted 10 times to be used at a final concentration of 0.5 mM. Dexamethasone (Sigma)—A stock of 10 μM was prepared in DMEM and diluted 40 times to get a final concentration of 0.25 μM. Mouse 3T3-L1 pre-adipocytes were cultured in DMEM media containing 25 mM glucose, 10% heat-inactivated new born calf serum (NBCS) and antibiotics at 37° C. and 5% CO2. When the cells were 70-80% confluent, they were trypsinized, washed and seeded in 48 well plates at a density of 3×10^4 cells per well. […] After differentiation for two days, The media was replaced with DMEM containing insulin (1 μg/mL) and different concentrations of test ingredients on alternate days until the cells were processed after 3rd progression. Untreated cells grown in differentiation media and undifferentiated cells grown in NBCS media were taken as adipogenesis positive and negative controls for the experiment. Quantification of triglycerides accumulated in adipocytes was done by Oil red O staining.

[2] = test system: high fat diet induced obesity in C57 mice; assay: High fat diet induced obesity in C57 mice; type: in vivo, C57/BL6 mice; conditions: high fat diet fed mice, 50 mg/kgbw; FIG. 6
Procedure: Animals-C57/BL6 mice, 6-8 weeks of age and 8 animals/Group (4 Male and 4 Female) were used for the study. […] The temperature and relative humidity was recorded once daily. Feed: […] Water was provided along with High Fat Diet to the animals throughout the acclimatization and experimental period. Water from water filter cum purifier was provided in animal feeding bottle with stainless steel sipper tubes. The design of the study groups is depicted in table 4. [table] Body weight of the animals was recorded in all the days of experimental period. At the end of the experimental period, the animals were sacrificed by cervical dislocation. Blood was collected and Serum was separated by centrifugation and used for the analysis of biochemical parameters. […] The following parameters were measured in the above groups: • Measurement of Body weight: Determination of Organ Weight13 Liver, Visceral adipose tissue (VAT) and subcutaneous adipose tissue (SAT) • Estimation of Cholesterol (Zak et al., (2009) A new method for the determination of serum cholesterol. J Clin Endocrinol Metab., 94(7), 2215-2220) • Estimation of Triglycerides (Foster L. B and Dunn R. T. (1973) Stable reagents for determination of serum triglycerides by a colorimetric Hantzsch condensation method. Clin Chem, 196, 338-340). • Estimation of HDL Cholesterol (Burstein et al., (1970). Determination of HDL cholesterol. […]

[3] = 3T3-L1, read-out: Adipogenesis inhibition
[4] = Table 2B, 1.5625 μg/ml, 3T3-L1, Oil red O, read-out: Adipogenesis inhibition
[5] = Table 2B, 3.125 μg/ml, 3T3-L1, Oil red O, read-out: Adipogenesis inhibition

Structure (SMILES)	inhibition at 1.5625 µg/mL [1, 3]	inhibition at 3.125 µg/mL [1, 3]	inhibition at 1.5625 µg/mL [1, 4]	inhibition at 3.125 µg/mL [1, 5]	Adverse effect on weight of the liver / critical organs [2]
COc1cc(/C=C/C(O)=C/C(=O)/C=C/c2ccc(O)cc2)ccc1O [DMC, demethoxycurcumin]	21%	19.4%			
COc1cc(/C=C/C(=O)CC(=O)/C=C/c2ccc(O)c(OC)c2)ccc1O [Curcumin, curcumin]			11.6%	11.1%	
O=C(/C=C/c1ccc(O)cc1)CC(=O)/C=C/c1ccc(O)cc1 [BDMC, bisdemethoxycurcumin]			20.2%	16.2%	does not induce any adverse effects

From US20230381117A1, “ANTI-OBESITY POTENTIAL OF BISDEMETHOXYCURCUMIN COMPOSITIONS” (SAMI-SABINSA GROUP LIMITED, priority 2020, published 2023)
